Experimental data as given in patent publication US20250376461A1, “INDAZOLE DERIVATIVES FOR TREATING TRPM3-MEDIATED DISORDERS” (Katholieke Universiteit Leuven, priority 2022, published 2025).

Each compound was assayed against T1, mouse TRPM3α2 (mTRPM3) ion channel (Mus musculus, UniProt J9SQF3) (assay: TRPM3 ion channel driven Ca2+ uptake, Fluo-4 AM assay, mTRPM3alpha2 overexpressing flip-in HEK293 cells stimulated with pregnenolone sulfate (50 μM)). Settings: mTRPM3 overexpressing HEK293 cells stimulated with pregnenolone sulfate (50 μM), activity ranges A, B, C.
T1 construct: expressed in transfected cells; host or cells: flip-in HEK293
T1 sequence (J9SQF3 1-1709 isoform J9SQF3-12): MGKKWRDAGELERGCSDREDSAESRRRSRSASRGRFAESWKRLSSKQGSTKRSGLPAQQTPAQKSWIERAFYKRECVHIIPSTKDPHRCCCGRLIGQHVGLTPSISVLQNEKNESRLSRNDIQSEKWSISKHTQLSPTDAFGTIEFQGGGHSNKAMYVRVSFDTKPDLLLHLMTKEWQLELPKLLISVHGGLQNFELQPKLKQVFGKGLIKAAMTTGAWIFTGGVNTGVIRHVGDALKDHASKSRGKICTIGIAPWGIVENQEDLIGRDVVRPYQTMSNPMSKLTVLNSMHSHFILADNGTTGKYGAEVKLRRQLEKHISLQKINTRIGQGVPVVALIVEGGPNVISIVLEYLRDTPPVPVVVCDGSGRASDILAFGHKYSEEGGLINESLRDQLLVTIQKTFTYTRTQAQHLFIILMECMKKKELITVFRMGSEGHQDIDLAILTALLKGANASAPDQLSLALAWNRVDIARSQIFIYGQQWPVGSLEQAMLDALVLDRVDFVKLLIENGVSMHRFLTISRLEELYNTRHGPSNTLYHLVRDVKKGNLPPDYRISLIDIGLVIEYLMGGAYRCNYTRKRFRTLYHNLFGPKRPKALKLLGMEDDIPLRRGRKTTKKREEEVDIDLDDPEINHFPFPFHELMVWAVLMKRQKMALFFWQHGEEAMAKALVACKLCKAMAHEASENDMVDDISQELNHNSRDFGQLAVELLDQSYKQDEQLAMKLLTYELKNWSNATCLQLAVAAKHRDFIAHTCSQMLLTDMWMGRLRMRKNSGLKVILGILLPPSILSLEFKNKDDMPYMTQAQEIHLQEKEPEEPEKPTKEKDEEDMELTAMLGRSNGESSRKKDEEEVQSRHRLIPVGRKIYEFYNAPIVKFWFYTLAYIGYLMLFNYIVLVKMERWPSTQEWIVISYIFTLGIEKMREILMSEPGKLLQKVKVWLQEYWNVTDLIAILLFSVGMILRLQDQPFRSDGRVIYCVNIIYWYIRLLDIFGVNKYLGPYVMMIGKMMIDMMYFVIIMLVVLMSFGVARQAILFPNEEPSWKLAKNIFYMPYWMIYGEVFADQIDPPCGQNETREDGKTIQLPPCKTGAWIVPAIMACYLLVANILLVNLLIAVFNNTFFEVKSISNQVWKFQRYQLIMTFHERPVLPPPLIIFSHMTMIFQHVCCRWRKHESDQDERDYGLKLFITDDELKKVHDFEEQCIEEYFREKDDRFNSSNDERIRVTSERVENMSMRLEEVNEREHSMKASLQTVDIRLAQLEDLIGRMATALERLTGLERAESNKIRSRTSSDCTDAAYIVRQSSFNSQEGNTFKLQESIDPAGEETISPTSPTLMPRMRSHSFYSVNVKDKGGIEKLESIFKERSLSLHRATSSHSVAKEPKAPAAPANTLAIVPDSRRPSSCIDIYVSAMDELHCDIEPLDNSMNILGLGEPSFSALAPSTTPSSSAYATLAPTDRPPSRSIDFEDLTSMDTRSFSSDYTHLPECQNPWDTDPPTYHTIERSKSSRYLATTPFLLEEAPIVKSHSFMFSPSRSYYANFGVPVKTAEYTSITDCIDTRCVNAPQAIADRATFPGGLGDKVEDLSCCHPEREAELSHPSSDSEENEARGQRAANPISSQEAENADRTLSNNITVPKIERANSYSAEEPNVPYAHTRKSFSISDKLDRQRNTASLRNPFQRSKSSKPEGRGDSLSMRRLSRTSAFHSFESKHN
Type: cell-based
Procedure: Monitoring the TRPM3 Ion Channel Driven Ca2+ Uptake.
In order to monitor the inhibition of the mouse TRPM3α2 (mTRPM3) ion channel by the compounds of the invention, a cellular system making use of an mTRPM3alpha2 or hTRPM3 overexpressing cell line (flip-in HEK293) was used. The TRPM3 channel was stimulated/opened with Pregnenolone sulfate (PS) (50 μM) which results in Ca^2+ influx.
For mTRPM3, the intracellular Ca^2+ was measured with a Calcium responsive dye, Fluor-4 AM ester (Invitrogen). Cells were cultured until a confluence of 80-90%, washed with Versene (Invitrogen) and detached from the surface by a short incubation with 0.05% Trypsin (Invitrogen). The trypsination process was stopped by the addition of complete cell culture medium (DMEM, glutamax, 10% FCS, NEAA, Pen-Strep). Cells were collected and resuspended in Krebs buffer without Calcium at RT.
Prior the cell seeding (±2000 cells/well into a black, 384 well plate (Greiner)) the diluted compound was added in the assay plate, together with the PS dissolved in Krebs buffer containing Calcium. […] Directly after cell addition the plates were read on an Envision fluorescence reader (Perkin Elmer) by an Excitation of 485 nm and emission at 535 nm.
Channel inhibition was calculated compared to a non-PS stimulated control versus a condition stimulated with PS (50 μM) with vehicle. The ability of the compounds of the invention to inhibit this activity was determined as: Percentage inhibition=[1−((RFU determined for sample with test compound present−RFU determined for sample with positive control inhibitor) divided by (RFU determined in the presence of vehicle−RFU determined for sample with positive control inhibitor))]*100.
The activities of the Example compounds cpd 001-262 tested are depicted in the table below. All tested compounds show an activity in the Fluo-4 AM assay. The activity ranges A, B and C refer to IC50 values in the Fluo-4 AM assay as follows: “A”: IC50<1 μM; “B”: 1 μM≤IC50≤20 μM and “C”: IC50>20 μM.
In the case of `Cc1ccc(COc2ccc3nn(C)c(C(=O)NC4(CO)CCNC4=O)c3c2)cn1` (single isomer, unassigned) [Cpd 169 - En1], the IC50 is reported as > 20000 nM. `Cc1ccc(COc2ccc3nn(C)c(C(=O)NC4(CO)CCNC4=O)c3c2)cn1` (single isomer, unassigned) [Cpd 169 - En2] was tested, and the IC50 was < 1000 nM. `Cc1ncsc1COc1ccc2nn(C)c(C(=O)NC3(C(N)=O)CCOC3)c2c1` (single isomer, unassigned) [Cpd 170 -En1] gave an IC50 of 1000 to 20000 nM. Work on `Cc1ncsc1COc1ccc2nn(C)c(C(=O)NC3(C(N)=O)CCOC3)c2c1` (single isomer, unassigned) [Cpd 170 -En2] yielded an IC50 of 1000 to 20000 nM. For `Cn1nc2ccc(OCc3ccccc3F)cc2c1C(=O)NC1(CO)CCNC1=O` (single isomer, unassigned) [Cpd 171 -En1], the IC50 was < 1000 nM. `Cn1nc2ccc(OCc3ccccc3F)cc2c1C(=O)NC1(CO)CCNC1=O` (single isomer, unassigned) [Cpd 171 -En2] gave an IC50 of 1000 to 20000 nM. With `COc1ccc2nn(C)c(C(=O)NC(C)(CO)C(N)=O)c2c1` (single isomer, unassigned) [Cpd 172 - En1] the IC50 was > 20000 nM. Work on `COc1ccc2nn(C)c(C(=O)NC(C)(CO)C(N)=O)c2c1` (single isomer, unassigned) [Cpd 172 - En2] yielded an IC50 of 1000 to 20000 nM. In the case of `Cn1nc2ccc(OCC3CCC3)cc2c1C(=O)NC(C)(CO)C(N)=O` (single isomer, unassigned) [Cpd 173 - En1], the IC50 is reported as < 1000 nM. `Cn1nc2ccc(OCC3CCC3)cc2c1C(=O)NC(C)(CO)C(N)=O` (single isomer, unassigned) [Cpd 173 - En2] was tested, and the IC50 was 1000 to 20000 nM. In the case of `Cc1ccc(COc2ccc3nn(C)c(C(=O)NC(C)(CO)C(N)=O)c3c2)cn1` (single isomer, unassigned) [Cpd 174 - En1], the IC50 is reported as 1000 to 20000 nM. In the case of `Cc1ccc(COc2ccc3nn(C)c(C(=O)NC(C)(CO)C(N)=O)c3c2)cn1` (single isomer, unassigned) [Cpd 174 - En2], the IC50 is reported as < 1000 nM. In the case of `Cn1nc2ccc(OCc3ccccc3C(F)F)cc2c1C(=O)NC1(C(N)=O)CCOC1` (single isomer, unassigned) [Cpd 175 - En1], the IC50 is reported as < 1000 nM. For `Cn1nc2ccc(OCc3ccccc3C(F)F)cc2c1C(=O)NC1(C(N)=O)CCOC1` (single isomer, unassigned) [Cpd 175 - En2], the IC50 was 1000 to 20000 nM. With `Cn1nc2ccc(OCc3ccccc3C(F)F)cc2c1C(=O)NC1(CO)CCNC1=O` (single isomer, unassigned) [Cpd 176 - En1] the IC50 was < 1000 nM. `Cn1nc2ccc(OCc3ccccc3C(F)F)cc2c1C(=O)NC1(CO)CCNC1=O` (single isomer, unassigned) [Cpd 176 - En2] gave an IC50 of 1000 to 20000 nM. `Cn1nc2ccc(OCc3cccnc3C(F)(F)F)cc2c1C(=O)NC1(CO)CCNC1=O` (single isomer, unassigned) [Cpd 177 - En1] was tested, and the IC50 was < 1000 nM. `Cn1nc2ccc(OCc3cccnc3C(F)(F)F)cc2c1C(=O)NC1(CO)CCNC1=O` (single isomer, unassigned) [Cpd 177 - En2] showed an IC50 of 1000 to 20000 nM. `Cn1nc2ccc(OCc3cccnc3C(F)(F)F)cc2c1C(=O)NC1(C(N)=O)CCOC1` (single isomer, unassigned) [Cpd 178 - En1] was tested, and the IC50 was < 1000 nM. With `Cn1nc2ccc(OCc3cccnc3C(F)(F)F)cc2c1C(=O)NC1(C(N)=O)CCOC1` (single isomer, unassigned) [Cpd 178 - En2] the IC50 was < 1000 nM. Compound `Cc1ncc(COc2ccc3nn(C)c(C(=O)NC(C)(CO)C(N)=O)c3c2)o1` (single isomer, unassigned) [Cpd 179 - En1] has an IC50 of 1000 to 20000 nM. In the case of `Cc1ncc(COc2ccc3nn(C)c(C(=O)NC(C)(CO)C(N)=O)c3c2)o1` (single isomer, unassigned) [Cpd 179 - En2], the IC50 is reported as < 1000 nM. `Cn1nc2ccc(OCc3cccnc3)cc2c1C(=O)NC1(CO)CCNC1=O` (single isomer, unassigned) [Cpd 180 - En1] was tested, and the IC50 was < 1000 nM. With `Cn1nc2ccc(OCc3cccnc3)cc2c1C(=O)NC1(CO)CCNC1=O` (single isomer, unassigned) [Cpd 180 - En2] the IC50 was 1000 to 20000 nM. In the case of `Cc1ccc(COc2ccc3nn(C)c(C(=O)NC(C)(CO)C(N)=O)c3c2)nc1` (single isomer, unassigned) [Cpd 181 - En1], the IC50 is reported as > 20000 nM. In the case of `Cc1ccc(COc2ccc3nn(C)c(C(=O)NC(C)(CO)C(N)=O)c3c2)nc1` (single isomer, unassigned) [Cpd 181 - En2], the IC50 is reported as 1000 to 20000 nM. With `Cc1ncsc1COc1ccc2nn(C)c(C(=O)NC(C)(CO)CC(F)F)c2c1` (single isomer, unassigned) [Cpd 182 - En1] the IC50 was < 1000 nM. For `Cc1ncsc1COc1ccc2nn(C)c(C(=O)NC(C)(CO)CC(F)F)c2c1` (single isomer, unassigned) [Cpd 182 - En2], the IC50 was < 1000 nM. With `CNC(=O)C1(NC(=O)c2c3cc(OCc4cccnc4C(F)(F)F)ccc3nn2C)CCOC1` (single isomer, unassigned) [Cpd 183 - En1, 2-methyl-N-[3-(methylcarbamoyl)oxolan-3-yl]-5-{[2-(trifluoromethyl)pyridin-3-yl]methoxy}-2H-indazole-3-carboxamide] the IC50 was < 1000 nM. `CNC(=O)C1(NC(=O)c2c3cc(OCc4cccnc4C(F)(F)F)ccc3nn2C)CCOC1` (single isomer, unassigned) [Cpd 183 - En2, 2-methyl-N-[3-(methylcarbamoyl)oxolan-3-yl]-5-{[2-(trifluoromethyl)pyridin-3-yl]methoxy}-2H-indazole-3-carboxamide] showed an IC50 of 1000 to 20000 nM. For `Cc1ncsc1COc1ccc2nn(C)c(C(=O)NC(C)(CO)C(=O)N(C)C)c2c1` (single isomer, unassigned) [Cpd 184 - En1], the IC50 was 1000 to 20000 nM. `Cc1ncsc1COc1ccc2nn(C)c(C(=O)NC(C)(CO)C(=O)N(C)C)c2c1` (single isomer, unassigned) [Cpd 184 - En2] showed an IC50 of 1000 to 20000 nM. In the case of `CNC(=O)C(C)(CO)NC(=O)c1c2cc(OCc3scnc3C)ccc2nn1C` (single isomer, unassigned) [Cpd 185 - En1, 3-hydroxy-N,2-dimethyl-2-({2-methyl-5-[(4-methyl-1,3-thiazol-5-yl)methoxy]-2H-indazol-3-yl}formamido)propanamide], the IC50 is reported as 1000 to 20000 nM. With `CNC(=O)C(C)(CO)NC(=O)c1c2cc(OCc3scnc3C)ccc2nn1C` (single isomer, unassigned) [Cpd 185 - En2, 3-hydroxy-N,2-dimethyl-2-({2-methyl-5-[(4-methyl-1,3-thiazol-5-yl)methoxy]-2H-indazol-3-yl}formamido)propanamide] the IC50 was < 1000 nM. Work on `CN(C)C(=O)C1(NC(=O)c2c3cc(OCc4cccnc4C(F)(F)F)ccc3nn2C)CCOC1` (single isomer, unassigned) [Cpd 186 - En1] yielded an IC50 of 1000 to 20000 nM. Work on `CN(C)C(=O)C1(NC(=O)c2c3cc(OCc4cccnc4C(F)(F)F)ccc3nn2C)CCOC1` (single isomer, unassigned) [Cpd 186 - En2] yielded an IC50 of 1000 to 20000 nM. With `Cn1nc2ccc(OCC(F)F)cc2c1C(=O)NC(C)(CO)C(N)=O` (single isomer, unassigned) [Cpd 187 - En1] the IC50 was > 20000 nM. `Cn1nc2ccc(OCC(F)F)cc2c1C(=O)NC(C)(CO)C(N)=O` (single isomer, unassigned) [Cpd 187 - En2] gave an IC50 of 1000 to 20000 nM. `CCn1nc2ccc(OCc3ccccn3)cc2c1C(=O)NC(C)(CO)C(N)=O` (single isomer, unassigned) [Cpd 188 - En1, 2-({2-ethyl-5-[(pyridin-2-yl)methoxy]-2H-indazol-3-yl}formamido)-3-hydroxy-2-methylpropanamide] showed an IC50 of 1000 to 20000 nM. `CCn1nc2ccc(OCc3ccccn3)cc2c1C(=O)NC(C)(CO)C(N)=O` (single isomer, unassigned) [Cpd 188 - En2, 2-({2-ethyl-5-[(pyridin-2-yl)methoxy]-2H-indazol-3-yl}formamido)-3-hydroxy-2-methylpropanamide] was tested, and the IC50 was < 1000 nM. For `Cn1nc2ccc(OCc3cccnc3)cc2c1C(=O)NC(C)(CO)C(N)=O` (single isomer, unassigned) [Cpd 190 - En1], the IC50 was 1000 to 20000 nM. For `Cn1nc2ccc(OCc3cccnc3)cc2c1C(=O)NC(C)(CO)C(N)=O` (single isomer, unassigned) [Cpd 190 - En2], the IC50 was < 1000 nM. `Cn1nc2ccc(OCc3ccccc3C(F)F)cc2c1C(=O)NC(C)(CO)C(N)=O` (single isomer, unassigned) [Cpd 191 - En1] was tested, and the IC50 was < 1000 nM. For `Cn1nc2ccc(OCc3ccccc3C(F)F)cc2c1C(=O)NC(C)(CO)C(N)=O` (single isomer, unassigned) [Cpd 191 - En2], the IC50 was < 1000 nM. `CN(C)C(=O)C(C)(CO)NC(=O)c1c2cc(OCc3cccnc3C(F)(F)F)ccc2nn1C` (single isomer, unassigned) [Cpd 193 - En1, 3-hydroxy-N,N,2-trimethyl-2-[(2-methyl-5-{[2-(trifluoromethyl)pyridin-3-yl]methoxy}-2H-indazol-3-yl)formamido]propanamide] showed an IC50 of 1000 to 20000 nM.
